Experimental data: patent US4910216A, “2-(3,5-dimethyl-4-hydroxyphenyl)indole derivatives” (Teikoku Hormone Mfg. Co., Ltd., priority 1988, dated 1990)

Key:
lipoxygenase [1] = assay: Inhibition of leukotriene formation (LTC4, LTD4, LTE4 in pleural exudate, HPLC) in A23187-induced pleurisy, oral administration; format: in vivo, rats (Wistar-strain, male); settings: rat pleural exudate, 3 mg/kg p.o., 60 minutes before intrapleural A23187
Description: (1) Preparation of A23187 -induced pleurisy
Under ether anaesthesia, 0.2 ml of 100,μM […] (prepared by adding injectable distilled water in a 2mM A23187 ethanol solution) was administered intrapleurally to rats (Wistar-strain, male, 11 weeks old). Twenty minutes after the administration, the rats were exsanguinated and the pleural exudate was harvested. The test compound was suspended or dissolved in a 0.5% carboxymethyl cellulose solution containing 2% Tween, and orally administered to the animals 60 minutes before the intrapleural administration of A23187.
(2) Measurement of the leukotrienes [LTC4, LTD4 and LTE4 ]
To the exudate obtained in (1) was added 4 times its volume of ice-cooled ethanol. They were well mixed, and then centrifuged. The supernatant was concentrated under reduced pressure, and 1.0 ml of 0.01M acetate buffer (pH 5.9) was added to the residue. The solution was added to SEP-PAK® (C18) and leukotrienes were partially purified. Fractions eluted with 5 ml of 60% ethanol/0.01M acetate buffer (pH 5.9) were collected, and the solvent was evaporated under reduced pressure.
The residue was dissolved in 1 ml of methanol, and the solution was filtered on a filter having a pore size of 0.45 microns, and evaporated under reduced pressure. The residue was dissolved in the mobile phase (acetonitrile/water/acetic acid/triethylamine, 35/63.5/1.5/2.2) used in high performance liquid chromatography (HPLC) and subjected to analysis by HPLC. A calibration curve was obtained by a fixed amount of PGB2 as an internal standard substance and standard LTC4, LTD4 and LTE4 were added to a buffer, followed by the same extraction, partial purification and HPLC analysis as above. The amounts of the leukotrienes in the sample were calculated from the calibration curve.
The activity of 2-(4-hydroxy-3,5-dimethylphenyl)-5-methoxy-3-methylindole (compound A) which is disclosed in Example 1 of U.S. Pat. No. 4,695,381 and was selected as an active control is also shown below.

lipoxygenase [2] = settings: known inhibitors; cited from earlier work
cyclooxygenase = settings: known inhibitors; cited from earlier work

SMILES | percent inhibition of LTC4 + LTD4 + LTE4 (lipoxygenase [1]) [%] | LTC4 + LTD4 + LTE4 (lipoxygenase [1]; mean ± S.E.M., vehicle 414.82 ± 49.81 ng) [ng] | lipoxygenase inhibition (lipoxygenase [2]) | cyclooxygenase inhibition (lack of specificity) (cyclooxygenase)
COc1ccc2[nH]c(-c3cc(C)c(O)c(C)c3)c(C)c2c1 [Compound A, 2-(4-hydroxy-3,5-dimethylphenyl)-5-methoxy-3-methylindole] | 32.0 |  |  | 
COc1ccc2[nH]c(-c3cc(C)c(OC(=O)CCC(=O)O)c(C)c3)c(C)c2c1 [Example 1] | 53.4 | 193.30 ± 28.37 |  | 
NC1=NN(c2cccc(C(F)(F)F)c2)CC1 [BW755C, 3-amino-1-(3-trifluoromethylphenyl)-2-pyrazoline] |  |  | inhibit not only lipoxygenase | lack specificity and inhibit not only lipoxygenase but also cyclooxygenase
CCCCCC#CCC#CCC#CCC#CCCCC(=O)O [5,8,11,14-eicosatetraynoic acid] |  |  | inhibit not only lipoxygenase | lack specificity and inhibit not only lipoxygenase but also cyclooxygenase
